Laboratory results from PubChem BioAssay (NCI).
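96-well plates; 48 h exposure; 5 concentrations. Endpoints by linear interpolation between flanking doses. Not reached: highest tested concentration assigned. GI50: concentration for 50% inhibition of growth. TGI marks complete inhibition of growth.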

Tests used:
Experiment in all cases: NCI tumour cell line growth inhibition, 48 h
786-0 renal = system: 786-0 renal
A498 renal = system: A498 renal
A549 NSCLC = system: A549 NSCLC
ACHN renal = system: ACHN renal
BT-549 breast = system: BT-549 breast
CAKI-1 renal = system: CAKI-1 renal
CCRF-CEM leukemia = system: CCRF-CEM leukemia
COLO 205 colon = system: COLO 205 colon
DU-145 prostate = system: DU-145 prostate
EKVX NSCLC = system: EKVX NSCLC
HCC-2998 colon = system: HCC-2998 colon
HCT-116 colon = system: HCT-116 colon
HCT-15 colon = system: HCT-15 colon
HL-60(TB) leukemia = system: HL-60(TB) leukemia
HOP-62 NSCLC = system: HOP-62 NSCLC
HOP-92 NSCLC = system: HOP-92 NSCLC
HS 578T breast = system: HS 578T breast
K-562 leukemia = system: K-562 leukemia
KM12 colon = system: KM12 colon
LOX IMVI melanoma = system: LOX IMVI melanoma
M14 melanoma = system: M14 melanoma
MCF7 breast = system: MCF7 breast
MDA-MB-231 breast = system: MDA-MB-231 breast
MDA-MB-435 = system: MDA-MB-435
MOLT-4 leukemia = system: MOLT-4 leukemia
NCI-H226 lung = system: NCI-H226 lung
NCI-H23 lung = system: NCI-H23 lung
NCI-H460 lung = system: NCI-H460 lung
NCI-H522 lung = system: NCI-H522 lung
NCI/ADR-RES ovarian = system: NCI/ADR-RES ovarian
OVCAR-3 ovarian = system: OVCAR-3 ovarian
OVCAR-4 ovarian = system: OVCAR-4 ovarian
OVCAR-5 ovarian = system: OVCAR-5 ovarian
OVCAR-8 ovarian = system: OVCAR-8 ovarian
PC-3 prostate = system: PC-3 prostate
RPMI-8226 leukemia = system: RPMI-8226 leukemia
RXF 393 renal = system: RXF 393 renal
SF-268 CNS = system: SF-268 CNS
SF-295 CNS = system: SF-295 CNS
SF-539 CNS = system: SF-539 CNS
SK-MEL-2 melanoma = system: SK-MEL-2 melanoma
SK-MEL-28 melanoma = system: SK-MEL-28 melanoma
SK-MEL-5 melanoma = system: SK-MEL-5 melanoma
SK-OV-3 ovarian = system: SK-OV-3 ovarian
SN12C renal = system: SN12C renal
SNB-19 CNS = system: SNB-19 CNS
SNB-75 CNS = system: SNB-75 CNS
SR leukemia = system: SR leukemia
SW-620 colon = system: SW-620 colon
T-47D breast = system: T-47D breast
TK-10 renal = system: TK-10 renal
U251 CNS = system: U251 CNS
UACC-257 melanoma = system: UACC-257 melanoma
UACC-62 melanoma = system: UACC-62 melanoma
HT29 colon = system: HT29 colon
IGROV1 ovarian = system: IGROV1 ovarian
MALME-3M melanoma = system: MALME-3M melanoma
UO-31 renal = system: UO-31 renal

With `Cn1cc(-c2nc(-c3cn(C)c4ncccc34)cs2)c2cc(F)ccc21` the GI50 (786-0 renal) was 2.57 µM, the TGI (786-0 renal) was 12.8 µM and the GI50 (A498 renal) was 1.91 µM. The TGI (A498 renal) was 31.3 µM, the GI50 (A549 NSCLC) was 1.74 µM and the TGI (A549 NSCLC) was > 100 µM. The GI50 (ACHN renal) was 2.96 µM, the TGI (ACHN renal) was > 100 µM and the GI50 (BT-549 breast) was 2.2 µM. It also gave a TGI (BT-549 breast) of 37.6 µM, a GI50 (CAKI-1 renal) of 0.776 µM and a TGI (CAKI-1 renal) of 11.9 µM. The GI50 (CCRF-CEM leukemia) was 2.41 µM, the TGI (CCRF-CEM leukemia) was > 100 µM and the GI50 (COLO 205 colon) was 1.44 µM. For the same compound, the TGI (COLO 205 colon) was 7.49 µM, the GI50 (DU-145 prostate) was 2.79 µM and the TGI (DU-145 prostate) was 21.9 µM. For the same compound, the GI50 (EKVX NSCLC) was 1.93 µM, the TGI (EKVX NSCLC) was 74.3 µM and the GI50 (HCC-2998 colon) was 0.962 µM. It also gave a TGI (HCC-2998 colon) of 24.2 µM, a GI50 (HCT-116 colon) of 0.775 µM and a TGI (HCT-116 colon) of 41.2 µM. The GI50 (HCT-15 colon) was 1.51 µM, the TGI (HCT-15 colon) was > 100 µM and the GI50 (HL-60(TB) leukemia) was 1.67 µM. It also gave a TGI (HL-60(TB) leukemia) of 88.7 µM, a GI50 (HOP-62 NSCLC) of 2.67 µM and a TGI (HOP-62 NSCLC) of 84.7 µM. It also gave a GI50 (HOP-92 NSCLC) of 2.31 µM, a TGI (HOP-92 NSCLC) of 8.14 µM and a GI50 (HS 578T breast) of 5.1 µM. For the same compound, the TGI (HS 578T breast) was > 100 µM, the GI50 (K-562 leukemia) was 0.358 µM and the TGI (K-562 leukemia) was > 100 µM. The GI50 (KM12 colon) was 0.61 µM, the TGI (KM12 colon) was 14.6 µM and the GI50 (LOX IMVI melanoma) was 1.15 µM. It also gave a TGI (LOX IMVI melanoma) of 5.69 µM, a GI50 (M14 melanoma) of 0.777 µM and a TGI (M14 melanoma) of 12.4 µM. It also gave a GI50 (MCF7 breast) of 0.528 µM, a TGI (MCF7 breast) of 60.5 µM and a GI50 (MDA-MB-231 breast) of 3.01 µM. The TGI (MDA-MB-231 breast) was 22.2 µM, the GI50 (MDA-MB-435) was 0.237 µM and the TGI (MDA-MB-435) was 0.713 µM. The GI50 (MOLT-4 leukemia) was 3.17 µM, the TGI (MOLT-4 leukemia) was > 100 µM and the GI50 (NCI-H226 lung) was 2.6 µM. For the same compound, the TGI (NCI-H226 lung) was > 100 µM, the GI50 (NCI-H23 lung) was 2.76 µM and the TGI (NCI-H23 lung) was > 100 µM. The GI50 (NCI-H460 lung) was 1.12 µM, the TGI (NCI-H460 lung) was 18.9 µM and the GI50 (NCI-H522 lung) was 0.367 µM. It also gave a TGI (NCI-H522 lung) of 7.57 µM, a GI50 (NCI/ADR-RES ovarian) of 0.511 µM and a TGI (NCI/ADR-RES ovarian) of 8.61 µM. For the same compound, the GI50 (OVCAR-3 ovarian) was 0.379 µM, the TGI (OVCAR-3 ovarian) was 2.24 µM and the GI50 (OVCAR-4 ovarian) was 0.746 µM. For the same compound, the TGI (OVCAR-4 ovarian) was > 100 µM, the GI50 (OVCAR-5 ovarian) was 3.54 µM and the TGI (OVCAR-5 ovarian) was > 100 µM. The GI50 (OVCAR-8 ovarian) was 3.26 µM, the TGI (OVCAR-8 ovarian) was > 100 µM and the GI50 (PC-3 prostate) was 2.13 µM. For the same compound, the TGI (PC-3 prostate) was 32 µM, the GI50 (RPMI-8226 leukemia) was 3.65 µM and the TGI (RPMI-8226 leukemia) was > 100 µM. For the same compound, the GI50 (RXF 393 renal) was 1.51 µM, the TGI (RXF 393 renal) was 4.77 µM and the GI50 (SF-268 CNS) was 3.38 µM. The TGI (SF-268 CNS) was 47.2 µM, the GI50 (SF-295 CNS) was 0.709 µM and the TGI (SF-295 CNS) was 6.18 µM. For the same compound, the GI50 (SF-539 CNS) was 1.8 µM, the TGI (SF-539 CNS) was 5.28 µM and the GI50 (SK-MEL-2 melanoma) was 3.96 µM. The TGI (SK-MEL-2 melanoma) was 37.2 µM, the GI50 (SK-MEL-28 melanoma) was 2.42 µM and the TGI (SK-MEL-28 melanoma) was > 100 µM. It also gave a GI50 (SK-MEL-5 melanoma) of 0.847 µM, a TGI (SK-MEL-5 melanoma) of 3.37 µM and a GI50 (SK-OV-3 ovarian) of 2.4 µM. The TGI (SK-OV-3 ovarian) was 21.2 µM, the GI50 (SN12C renal) was 3.63 µM and the TGI (SN12C renal) was > 100 µM. For the same compound, the GI50 (SNB-19 CNS) was 2.89 µM, the TGI (SNB-19 CNS) was > 100 µM and the GI50 (SNB-75 CNS) was 1.27 µM. It also gave a TGI (SNB-75 CNS) of 4.27 µM, a GI50 (SR leukemia) of 0.565 µM and a TGI (SR leukemia) of 17.8 µM. For the same compound, the GI50 (SW-620 colon) was 1.23 µM, the TGI (SW-620 colon) was > 100 µM and the GI50 (T-47D breast) was 0.648 µM. For the same compound, the TGI (T-47D breast) was 23.2 µM, the GI50 (TK-10 renal) was 3.01 µM and the TGI (TK-10 renal) was 38 µM. The GI50 (U251 CNS) was 1.55 µM, the TGI (U251 CNS) was > 100 µM and the GI50 (UACC-257 melanoma) was 6.33 µM. For the same compound, the TGI (UACC-257 melanoma) was > 100 µM, the GI50 (UACC-62 melanoma) was 1.33 µM and the TGI (UACC-62 melanoma) was > 100 µM.
Work on `O=C1c2ccc3ccccc3c2CCC1N1CCCCC1` (stereo not given) yielded a TGI (786-0 renal) of 32.1 µM, a TGI (A549 NSCLC) of 36.3 µM and a TGI (ACHN renal) of 31.5 µM. It also gave a TGI (BT-549 breast) of 74.7 µM, a TGI (CAKI-1 renal) of 29.5 µM and a TGI (COLO 205 colon) of 42.1 µM. It also gave a TGI (DU-145 prostate) of 30.3 µM, a TGI (EKVX NSCLC) of 51.7 µM and a TGI (HCT-116 colon) of 31.7 µM. It also gave a TGI (HCT-15 colon) of 37.4 µM, a TGI (HL-60(TB) leukemia) of 49.6 µM and a TGI (HOP-62 NSCLC) of 34 µM. It also gave a TGI (HOP-92 NSCLC) of 32.2 µM, a TGI (HS 578T breast) of 44.9 µM and a TGI (HT29 colon) of 39 µM. For the same compound, the TGI (IGROV1 ovarian) was 29.5 µM, the TGI (K-562 leukemia) was 35 µM and the TGI (KM12 colon) was 31.6 µM. The TGI (LOX IMVI melanoma) was 33.7 µM, the TGI (MALME-3M melanoma) was 31.4 µM and the TGI (MCF7 breast) was > 100 µM. For the same compound, the TGI (MDA-MB-231 breast) was 30.6 µM, the TGI (MDA-MB-435) was 32.3 µM and the TGI (NCI-H226 lung) was 31.4 µM. For the same compound, the TGI (NCI-H23 lung) was 40.2 µM, the TGI (NCI-H460 lung) was 50.4 µM and the TGI (NCI-H522 lung) was 35.7 µM. For the same compound, the TGI (NCI/ADR-RES ovarian) was 46.3 µM, the TGI (OVCAR-3 ovarian) was 28.8 µM and the TGI (OVCAR-4 ovarian) was 30.2 µM. It also gave a TGI (OVCAR-5 ovarian) of 37.9 µM, a TGI (OVCAR-8 ovarian) of 37.3 µM and a TGI (PC-3 prostate) of 42.3 µM. The TGI (RXF 393 renal) was 46.5 µM, the TGI (SF-268 CNS) was 39.7 µM and the TGI (SF-295 CNS) was 37.9 µM. The TGI (SF-539 CNS) was 28.8 µM, the TGI (SK-MEL-2 melanoma) was 44.4 µM and the TGI (SK-MEL-28 melanoma) was 33.1 µM. It also gave a TGI (SK-MEL-5 melanoma) of 30.7 µM, a TGI (SK-OV-3 ovarian) of 54.4 µM and a TGI (SN12C renal) of 29 µM. The TGI (SNB-19 CNS) was 40.8 µM, the TGI (SNB-75 CNS) was 34.3 µM and the TGI (SR leukemia) was 36.6 µM. It also gave a TGI (SW-620 colon) of 34.5 µM, a TGI (T-47D breast) of 54.3 µM and a TGI (TK-10 renal) of 29.6 µM. It also gave a TGI (U251 CNS) of 33.1 µM, a TGI (UACC-257 melanoma) of 35 µM and a TGI (UACC-62 melanoma) of 30.3 µM. The TGI (UO-31 renal) was 29.1 µM.
